This note sets out measurements from patent US20130157959A1, “USE OF HADES AS TUMOR SUPPRESSOR TARGET” (KONKUK UNIVERSITY INDUSTRIAL COOPERATION CORP, priority 2010, published 2013).

Common to all, as to type: cell-based
In series [1] the test system is p53. In words: p53 level in Hades-transfected H1299 cells with MG132. As to conditions: H1299, 10 μM MG132 4 h, FIG. 2e. The method, then: To gain a more detailed insight into the function of Hades in p53 downregulation, we investigated the regulation of p53 stability by Hades. H1299 cells were transfected with each indicated plasmid for 24 h and untreated or treated with 10 μM MG132 for 4 h. The reduced level of p53 by Hades was recovered by treatment of MG132 (FIG. 2e). To generate of stable Hades-knockdown MCF7 cells using the shRNA, the cells were transfected with pSuper-Hades 1 or 2. After selection for 14 days in media containing G418 (500 μg/ml), hades mRNA levels were measured by RT-PCR and the levels of endogenous Hades and p53 proteins were measured by immunoblotting. […] Furthermore, Stable Hades-knockdown MCF7 cells using Hades shRNA were incubated with cycloheximide (CHX, 150 μg/ml). The half-life of p53 protein was greater in pSuper-Hades transfected cells (lower panel) than in control (upper panel) (FIG. 2g).

Series [2] has as its system p53. Briefly: In vivo p53 ubiquitination assay in H1299 cells. Conditions: H1299 cotransfected with p53 and GFP-Hades, MG132 10 μM 4 h, FIG. 3e. Here is the method:
For in vivo p53 ubiquitination assay, HCT116 p53^−/− or H1299 cells were transfected with GFP, GFP-Hades, or GFP-Hades RING MT. At 48 hr after transfection, cells were treated with 10 μM MG132 for 4 hr. The ubiquitinated lysates were analyzed by immunoprecipitation using anti-p53 antibody followed by immunoblotting using anti-Ubiquitin antibody. In vivo p53 ubiquitination analysis, HCT116 p53^−/− or H1299 cells were transformed with GFP, GFP-Hades or GFP-Hades RING MT for 48 hr. After the transformation, cells were incubated for 4 hr using 10 μM MG132. Then, cells were lysed using SDS-containing lysis buffer and heated for […]. […] The anti-p53 immunoprecipitate was analyzed by immunoblotting using anti-polyubiquitin antibody.
Since there are several E2 conjugating enzymes which participate in the ubiquitin-mediated degradation [Smalle et al., Annu Rev Plant Biol. 2004, 555-590 (2004)], we examined which E2 enzyme is responsible for the ubiquitination of p53 by Hades. […] After in vitro ubiquitination, samples were examined SDS-PAGE and detected using autoradiography. […] Moreover, in vitro translated ^35S-labeled p53 was incubated with GST, GST-Hades RP or GST-Mdm2 in the presence of ATP, His-tagged ubiquitin E1 and E2(UbcHSc). p53 ubiquitination was assessed by immunoblotting using anti-p53 antibody. […] The p53 ubiquitination was assessed by immunoblotting using anti-p53 antibody. […]

Series [3] has as its system p53. Briefly: Bax-luc / Puma-luc luciferase reporter assay. As to conditions: H1299, LMB 20 nM 4 h, FIG. 4b. Here is the method:
Aliquots of 5×10^4 cells were plated in 24-well plates. The following was added to each well: 500 ng of pGL plasmid containing the promoter p53 binding site for Bax or Puma, 100 ng of p53 plasmid, and 200 ng of Hades or Hades MT plasmid. At 48 h after transfection, cells were harvested and cell extracts were prepared by addition of 50 μl Passive lysis buffer (Promega). Luciferase activities were measured using a Biotek synergy HT microplate reader. The relative luciferase activities were normalized by mesuring β-galactosidase activities using Luminescent β-galactosidase detection kit II (Takara-Clontech).
Since E3 ligase activities necessary for p53 ubiquitination can also regulate p53 function [Dornan et al., Nature 429, 86-92 (2004); Leng et al., Cell 112, 779-791 (2003)], we explored the effect of Hades on p53-dependent growth suppression and apoptosis. First, we examined whether Hades affects p53-mediated transcriptional activation using a luciferase reporter assay (FIG. 4a). H1299 cells were cotransfected with expression plasmids for p53 and GFP, GFP-Hades, or GFP-Hades MT, together with Bax-luc or Puma-luc reporter plasmid. At 24 h after transfection, the relative luciferase activities were measured by luminometer. […] At 24 h after transfection, luciperase activation and p53 experssion were measured.
In general terms: A reporter such as luciferase makes a cellular process visible.

For another series, the target named is Crm1 (Homo sapiens, UniProt O14980). In words: p53 level in Hades-transfected H1299 cells with leptomycin B. Conditions: H1299 transfected with p53 and GFP-Hades, FIG. 2i.
Crm1, sequence (O14980 whole entry): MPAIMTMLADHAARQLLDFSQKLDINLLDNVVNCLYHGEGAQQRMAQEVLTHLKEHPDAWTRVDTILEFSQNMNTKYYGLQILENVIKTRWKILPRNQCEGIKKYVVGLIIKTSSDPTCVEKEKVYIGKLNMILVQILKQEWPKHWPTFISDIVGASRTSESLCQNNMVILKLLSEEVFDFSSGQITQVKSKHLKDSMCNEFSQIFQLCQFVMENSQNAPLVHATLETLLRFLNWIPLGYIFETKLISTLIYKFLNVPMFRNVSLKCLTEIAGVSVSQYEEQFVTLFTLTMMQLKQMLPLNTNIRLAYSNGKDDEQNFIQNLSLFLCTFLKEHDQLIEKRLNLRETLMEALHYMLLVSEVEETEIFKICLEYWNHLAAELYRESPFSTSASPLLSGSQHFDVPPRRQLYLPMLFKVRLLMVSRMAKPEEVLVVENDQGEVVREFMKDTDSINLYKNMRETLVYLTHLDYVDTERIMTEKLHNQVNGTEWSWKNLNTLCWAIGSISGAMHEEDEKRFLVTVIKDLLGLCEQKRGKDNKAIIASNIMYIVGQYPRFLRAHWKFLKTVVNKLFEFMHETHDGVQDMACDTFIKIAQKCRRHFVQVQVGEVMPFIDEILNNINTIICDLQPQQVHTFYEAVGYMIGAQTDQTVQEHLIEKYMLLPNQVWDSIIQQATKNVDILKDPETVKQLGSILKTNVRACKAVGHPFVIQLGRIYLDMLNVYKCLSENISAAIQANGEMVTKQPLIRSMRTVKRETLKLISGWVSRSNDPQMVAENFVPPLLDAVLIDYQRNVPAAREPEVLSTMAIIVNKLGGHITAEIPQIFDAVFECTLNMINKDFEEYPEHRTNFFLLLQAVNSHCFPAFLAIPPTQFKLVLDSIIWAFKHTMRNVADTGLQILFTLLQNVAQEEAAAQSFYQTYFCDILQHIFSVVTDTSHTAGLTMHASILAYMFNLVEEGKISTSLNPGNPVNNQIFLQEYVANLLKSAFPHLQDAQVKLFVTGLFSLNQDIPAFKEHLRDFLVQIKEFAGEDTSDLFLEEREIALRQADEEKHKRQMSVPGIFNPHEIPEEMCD
In series [4] the test system is p53. Briefly: p53 accumulation in CPT-treated MCF7 cells (immunoblotting). Here is the method:
In a prior research, as p53 is rapidly translocated to mitochondria upon camptothecin (CPT) treatment for its exonuclear function [Mihara et al., Molecular Cell 11, 577-590 (2003)]. We examined whether Hades would be able to weaken the exonuclear function of p53 upon CPT treatment. MCF7 cells were transfected with plasmids (1 μg) expressing GFP or GFP-Hades. At 24 h post-transfection, cells were treated with CPT (1 μM) for 6 h. Accumulation of p53 upon CPT treatment was attenuated by Hades expression (FIG. 5e, upper panel). MCF7 cells were transfected with expression plasmid for GFP or GFP-Hades RING MR. At 24 h after transfection, cells were treated with CPT [5 μM] for 6 h and their nuclear and cytoplasmic fractions were collected to measure the expression level of p53. […] Further, MCF7 cells were transfected with the expression plasmids for GFP or GFP-Hades MR. At 24 h after transfection, cells were treated with 1 μM CPT for 24 h. Cells were harvested, lysed and immunoprecipitated with anti-p53 antibody. […] Hades inhibits the interaction between p53 and Bcl-2 in CPT-treated cells. (FIG. 5f) In order to confirm the effect of Hades on CPT-induced apoptosis, MCF7 cells were transfected with plasmids expressing GFP or GFP-Hades. At 24 h post-transfection, cells were treated with CPT (1 μM) for 24 h.
Background: A western blot detects proteins with antibodies after separation by electrophoresis.

Another series deals with HCT116 p53+/+ cells. In words: JC-1 mitochondrial membrane potential, HCT116 p53+/+. As to conditions: 40 nM siRNA 24 h, then 1 μM CPT 24 h, FIG. 5j. Here is the method:
For the MTS assay, cells were incubated with CellTiter 96® AQueous Non-Radioactive Cell Proliferation Assay reagent (Promega, USA) for 1 h, and then the O.D. was measured at 490 nm. Apoptosis, DNA content, and mitochondrial membrane potential were determined by flow cytometry using annexin V-PE, propidium iodine, and JC-1 staining, as previous described [Shirangi et al., FASEB J. 16, 420-422 (2002)].
The present inventors investigated the negative role of Hades on p53-dependent apoptosis additionaly using FACS analysis. MCF7 cells were transfected with pSuper or pSuper-Hades, treated with 1 μM CPT for 24 h, and analyzed by FACS to measure the sub-GO fraction. As a result, CPT treatment was higher in Hades knockdown MCF7 cells than in control cells (FIG. 5i). Further, HCT116 p53+/+ and HCT116 p53−/− cells were transfected with 40 nM Hades siRNA or control siRNA. After incubation for 24 h, cells were further treated with 1 μM CPT for 24 h. Cells were harvested and stained with JC-1 for 30 min.

Peptide text beside a SMILES is read from it. * marks the point of attachment. Cbz = O=C(OCc1ccccc1)*

Description for Crm1: Next, we monitored the localization of p53 after the knockdown of Hades. […] The levels of endogenous p53 were measured in fractionated extracts of stable MCF7 cells. […] And also, we used a p53 expression plasmid encoding a mutant p53 (C153Y) that is localized mainly to the cytoplasm but not in the nucleus [Nie et al., J Biol Chem. 282, 14616-14625 (2007)]. We performed immunoblotting assay of ectopically expressed wild-type or mutant p53(C135Y). […] At 24 h after transfection, ectopically expressed wild-type p53 and mutant p53 levels were measured by immunoblotting.

In the case of `CC(C)C[C@@H](C=O)NC(=O)[C@H](CC(C)C)NC(=O)[C@H](CC(C)C)NC(=O)OCc1ccccc1` [MG132] (Cbz-Leu-Leu-Leu-aldehyde), the “level of p53 reduced by Hades” value in the series with p53 [1] is “recovered”. Further, the “polyubiquitinated p53” value in the series on p53 [2] is listed as “only detected in Hades-transfected cells treated with MG132”.

Take `CCC(=C/[C@H](C)C/C=C/C(C)=C/[C@@H](C)C(=O)[C@@H](C)[C@H](O)[C@@H](C)C/C(C)=C/C(=O)O)/C=C/[C@@H]1OC(=O)C=C[C@@H]1C` [LMB, Leptomycin B]: in the series with p53 [3], the “p53 transcriptional activity (relative luciferase activity)” value is listed as “not reduced by Hades in the presence of LMB”. On Crm1, the “level of p53 reduced by Hades” value is recorded as “restored the level of p53”.

Consider `CC[C@@]1(O)C(=O)OCc2c1cc1n(c2=O)Cc2cc3ccccc3nc2-1` [CPT, Camptothecin], for which the “expression level of p53” value in the series with p53 [4] (MCF7, 1 μM CPT 24 h, FIG. 5f) is “accumulation of p53 expression was observed”. Besides, the “expression level of p53 in nuclear and cytoplasmic fractions” value in the series on p53 [4] (MCF7, CPT 5 μM 6 h, FIG. 5e lower panel) was “accumulated in nucleus and cytoplasm”. On to “Hades siRNA: siRNAs for Hades from Ambion, GGGAUUUUUAUCUCGAGGC and CGUGUGUGUAGAGGACAAA; antisense SEQ ID NO: 4 and 5 (antisense 1 GCCUCGAGAUAAAAAUCCCTG; antisense 2 UUUGUCCUCUACACACACGTG; sense strands lack entries, further chemistry not given here)”, for which the “loss of mitochondrial membrane potential (JC-1)” value in the series on HCT116 p53+/+ cells was “only detectable in HCT116 p53+/+ cells”.
